Patent US9890138B2, “Diaminopyrimidine derivatives and processes for the preparation thereof” (YUHAN CORPORATION, priority 2011, dated 2018)

molecular target: T1, human 5-HT4(a) (Homo sapiens, UniProt Q13639); assay: Evaluation of agonistic activity in CHO-K1 cells expressing human 5-HT4(a) (GeneBlAzer HTR4-CRE-bla CHO-K1, beta-lactamase reporter); format: cell-based; details: CHO-K1 cells stably expressing human 5-HT4(a)
T1 construct: host or cells: GeneBlAzer HTR4-CRE-bla CHO-K1 cells
Procedure: Test Example 1: Evaluation of Agonistic Activity in CHO-K1 Cells Expressing Human 5-HT4(a)
As CHO-K1 cells stably expressing human 5-HT4(a), we used the GeneBlAzer HTR4-CRE-bla CHO-K1 cells (Invitrogen Corp.). The cells were cultured, under the condition of 37[…] and 5% CO2, in a DMEM supplemented with 10% fetal bovine serum (FBS), 25 mM HEPES (pH7.4), 600 μg/ml hygromycin B, 0.1 mM non-essential amino acids, 100 unit/ml penicillin and 100 μg/ml streptomycin. Subcultures were performed three times per one week, each being at less than 80% confluence. At the previous day before treating test compounds, the cells were collected using 0.5% trypsin/EDTA and then diluted with a DMEM supplemented with 1% FBS, 25 mM HEPES, and 0.1 mM non-essential amino acids into 3.125×10^5 cells/ml. 32 μl of the diluted cells were added into 384-well plate (10^4 cells per well) and then incubated overnight. After the overnight culture, 8 μl of the medium having 1% of DMSO was added into the cell-free control well and the non-stimulating control well, respectively. 8 μl of the respective test compound dilutions (which had been prepared by diluting by 100-times with the medium as mentioned in the above) having 1% of DMSO were added to the respective remaining wells. After being cultured in the incubator for 5 hours, the wells of the 384-plate were treated with the substrate solution (8 μl per well) prepared according to the vendor's instruction (i.e., Invitrogen's instruction), and then incubated in the dark room for additional two hours. Agonistic activities on 5-HT4 receptor were evaluated, on the basis of fluorescence values of the cleavage-products by beta-lactamase. After exciting to 410 nm of wavelength using a fluorescence detector (Genios Pro), we measured the fluorescence values at two emission wavelengths (first wavelength: 465 nm, second wavelength: 535 nm). Data were analyzed on the basis of the ratio of fluorescence intensities of each well at the respective wavelengths. Each EC50 value was calculated by non-linear regression analysis using the “GraphPad Prism” program, based on the activities according to 8-different concentrations of the test compounds.

T1 sequence (Q13639 1-387 isoform Q13639-2): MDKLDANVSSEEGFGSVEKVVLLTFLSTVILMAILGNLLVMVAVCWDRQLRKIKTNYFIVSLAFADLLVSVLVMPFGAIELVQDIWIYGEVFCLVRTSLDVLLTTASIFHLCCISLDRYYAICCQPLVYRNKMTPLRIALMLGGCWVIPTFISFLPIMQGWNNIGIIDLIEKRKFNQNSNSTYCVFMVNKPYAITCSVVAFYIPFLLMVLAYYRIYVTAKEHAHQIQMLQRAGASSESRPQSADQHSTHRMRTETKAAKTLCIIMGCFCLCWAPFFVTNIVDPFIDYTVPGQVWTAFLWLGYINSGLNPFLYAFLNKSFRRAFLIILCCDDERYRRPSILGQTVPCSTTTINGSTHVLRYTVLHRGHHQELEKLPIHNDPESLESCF

Row | SMILES | EC50 [nM]
1 | CCCc1cc(N2CC[C@H](NC(=O)Cc3ccccc3)C2)nc(Nc2cccc(C#N)c2)n1 [Example 66, (S)-N-{1-[2-(3-cyanophenylamino)-6-propylpyrimidin-4-yl]pyrrolidin-3-yl}-2-phenylacetamide] | 0.1
2 | CCCc1cc(N2CC[C@H](NC(=O)Cc3ccc(F)cc3)C2)nc(Nc2cccc(C#N)c2)n1 [Example 67, (S)-N-{1-[2-(3-cyanophenylamino)-6-propylpyrimidin-4-yl]pyrrolidin-3-yl}-2-(4-fluorophenyl)acetamide] | 0.19
3 | CCCc1cc(N2CC[C@H](NC(=O)CN3CCCCC3)C2)nc(Nc2cccc(C#N)c2)n1 [Example 71, (S)-N-{1-[2-(3-cyanophenylamino)-6-propylpyrimidin-4-yl]pyrrolidin-3-yl}-2-(piperidin-1-yl)acetamide] | 0.25
4 | CCCc1cc(N2CC[C@H](NC(=O)Cc3ccc(N)cc3)C2)nc(Nc2cccc(C#N)c2)n1 [Example 73, (S)-2-(4-aminophenyl)-N-{1-[2-(3-cyanophenylamino)-6-propylpyrimidin-4-yl]pyrrolidin-3-yl}acetamide] | 0.27
5 | CCCc1cc(N2CC[C@H](NC(=O)COC)C2)nc(Nc2cccc(C#N)c2)n1 [Example 75, (S)-N-{1-[2-(3-cyanophenylamino)-6-propylpyrimidin-4-yl]pyrrolidin-3-yl}-2-methoxyacetamide] | 0.22
6 | CCCc1cc(N2CC[C@H](NC(=O)Cc3cccnc3)C2)nc(Nc2cccc(C#N)c2)n1 [Example 77, (S)-N-{1-[2-(3-cyanophenylamino)-6-propylpyrimidin-4-yl]pyrrolidin-3-yl}-2-(pyridin-3-yl)acetamide] | 0.15
7 | CCCc1cc(N2CC[C@H](NC(=O)Cc3ccncc3)C2)nc(Nc2cccc(C#N)c2)n1 [Example 78, (S)-N-{1-[2-(3-cyanophenylamino)-6-propylpyrimidin-4-yl]pyrrolidin-3-yl}-2-(pyridin-4-yl)acetamide] | 0.28
8 | CCCc1cc(N2CC[C@H](NC(=O)C/C=C/c3ccccc3)C2)nc(Nc2cccc(C#N)c2)n1 [Example 79, (S,E)-N-{1-[2-(3-cyanophenylamino)-6-propylpyrimidin-4-yl]pyrrolidin-3-yl}-4-phenylbut-3-enamide] | 0.44
9 | CCCc1cc(N2CC[C@H](NC(=O)Cc3cccs3)C2)nc(Nc2cccc(C#N)c2)n1 [Example 80, (S)-N-{1-[2-(3-cyanophenylamino)-6-propylpyrimidin-4-yl]pyrrolidin-3-yl}-2-(thiophen-2-yl)acetamide] | 0.17
10 | CCCc1cc(N2CC[C@H](NC(=O)C(C)C)C2)nc(Nc2cccc(C#N)c2)n1 [Example 81, (S)-N-{1-[2-(3-cyanophenylamino)-6-propylpyrimidin-4-yl]pyrrolidin-3-yl}isobutyramide] | 0.205
11 | CCCc1cc(N2CC[C@H](NC(=O)CC(F)(F)F)C2)nc(Nc2cccc(C#N)c2)n1 [Example 82, (S)-N-{1-[2-(3-cyanophenylamino)-6-propylpyrimidin-4-yl]pyrrolidin-3-yl}-3,3,3-trifluoropropanamide] | 0.048
12 | CCCCCCN[C@H]1CCN(c2cc(CCC)nc(Nc3cccc(C#N)c3)n2)C1 [Example 84, (S)-3-{4-[3-(hexylamino)pyrrolidin-1-yl]-6-propylpyrimidin-2-ylamino}benzonitrile] | 0.031
13 | CCCN[C@H]1CCN(c2cc(CCC)nc(Nc3cccc(C#N)c3)n2)C1 [Example 85, (S)-3-{4-propyl-6-[3-(propylamino)pyrrolidin-1-yl]pyrimidin-2-ylamino}benzonitrile] | 0.003
14 | CCCc1cc(N2CC[C@H](NCC3CCCCC3)C2)nc(Nc2cccc(C#N)c2)n1 [Example 86, (S)-3-{4-[3-(cyclohexylmethylamino)pyrrolidin-1-yl]-6-propylpyrimidin-2-ylamino}benzonitrile] | 0.039
15 | CCCc1cc(N2CC[C@H](NCc3ccccc3)C2)nc(Nc2cccc(C#N)c2)n1 [Example 87, (S)-3-{4-[3-(benzylamino)pyrrolidin-1-yl]-6-propylpyrimidin-2-ylamino}benzonitrile] | 0.048
16 | CCCc1cc(N2CC[C@H](NCCc3ccccc3)C2)nc(Nc2cccc(C#N)c2)n1 [Example 88, (S)-3-{4-[3-(phenethylamino)pyrrolidin-1-yl]-6-propylpyrimidin-2-ylamino}benzonitrile] | 0.041
17 | CCCc1cc(N2CC[C@H](NCCCc3ccccc3)C2)nc(Nc2cccc(C#N)c2)n1 [Example 89, (S)-3-{4-[3-(3-phenylpropylamino)pyrrolidin-1-yl]-6-propylpyrimidin-2-ylamino}benzonitrile] | 0.08

Row | SMILES | EC50 [nM]
18 | CCCc1cc(N2CC[C@H](NCc3cccc(F)c3)C2)nc(Nc2cccc(C#N)c2)n1 [Example 90, (S)-3-{4-[3-(3-fluorobenzylamino)pyrrolidin-1-yl]-6-propylpyrimidin-2-ylamino}benzonitrile] | 0.091
19 | CCCc1cc(N2CC[C@H](NCc3ccc(O)cc3)C2)nc(Nc2cccc(C#N)c2)n1 [Example 91, (S)-3-{4-[3-(4-hydroxybenzylamino)pyrrolidin-1-yl]-6-propylpyrimidin-2-ylamino}benzonitrile] | 0.014
20 | CCCc1cc(N2CC[C@H](NCc3ccc(CC)cc3)C2)nc(Nc2cccc(C#N)c2)n1 [Example 92, (S)-3-{4-[3-(4-ethylbenzylamino)pyrrolidin-1-yl]-6-propylpyrimidin-2-ylamino}benzonitrile] | 0.057
21 | CCCc1cc(N2CC[C@H](NCCC(C)C)C2)nc(Nc2cccc(C#N)c2)n1 [Example 93, (S)-3-{4-[3-(isopentylamino)pyrrolidin-1-yl]-6-propylpyrimidin-2-ylamino}benzonitrile] | 0.01
22 | CCCCCN[C@H]1CCN(c2cc(CCC)nc(Nc3cccc(C#N)c3)n2)C1 [Example 94, (S)-3-{4-[3-(pentylamino)pyrrolidin-1-yl]-6-propylpyrimidin-2-ylamino}benzonitrile] | 0.041
23 | CCCc1cc(N2CC[C@H](NCC(C)CC)C2)nc(Nc2cccc(C#N)c2)n1 (stereo partly drawn) [Example 95, 3-{4-[(3S)-3-(2-methylbutylamino)pyrrolidin-1-yl]-6-propylpyrimidin-2-ylamino}benzonitrile] | 0.081
24 | CCCc1cc(N2CC[C@H](NCC(C)C)C2)nc(Nc2cccc(C#N)c2)n1 [Example 96, (S)-3-{4-[3-(isobutylamino)pyrrolidin-1-yl]-6-propylpyrimidin-2-ylamino}benzonitrile] | 0.017
25 | CCCc1cc(N2CC[C@H](NCc3ccc(OC)cc3)C2)nc(Nc2cccc(C#N)c2)n1 [Example 97, (S)-3-{4-[3-(4-methoxybenzylamino)pyrrolidin-1-yl]-6-propylpyrimidin-2-ylamino}benzonitrile] | 0.046
26 | CCCc1cc(N2CC[C@H](NCc3ccc(F)cc3)C2)nc(Nc2cccc(C#N)c2)n1 [Example 98, (S)-3-{4-[3-(4-fluorobenzylamino)pyrrolidin-1-yl]-6-propylpyrimidin-2-ylamino}benzonitrile] | 0.094
27 | CCCc1cc(N2CC[C@H](NCC3CC3)C2)nc(Nc2cccc(C#N)c2)n1 [Example 99, (S)-3-{4-[3-(cyclopropylmethylamino)pyrrolidin-1-yl]-6-propylpyrimidin-2-ylamino}benzonitrile] | 0.0015
28 | CCCc1cc(N2CC[C@H](N(CC3CC3)CC3CC3)C2)nc(Nc2cccc(C#N)c2)n1 [Example 100, (S)-3-(4-{3-[bis (cyclopropylmethyl)amino]pyrrolidin-1-yl}-6-propylpyrimidin-2-ylamino)benzonitrile] | 0.31
29 | CCCc1cc(N2CC[C@H](NCc3cccnc3)C2)nc(Nc2cccc(C#N)c2)n1 [Example 102, (S)-3-{4-propyl-6-[3-(pyridin-3-ylmethylamino)pyrrolidin-1-yl]pyrimidin-2-ylamino}benzonitrile] | 0.39
30 | CCCc1cc(N2CC[C@H](NCc3ccncc3)C2)nc(Nc2cccc(C#N)c2)n1 [Example 103, (S)-3-{4-propyl-6-[3-(pyridin-4-ylmethylamino)pyrrolidin-1-yl]pyrimidin-2-ylamino}benzonitrile] | 0.067
31 | CCCc1cc(N2CC[C@H](NCC(C)(C)C)C2)nc(Nc2cccc(C#N)c2)n1 [Example 105, (S)-3-{4-[3-(neopentylamino)pyrrolidin-1-yl]-6-propylpyrimidin-2-ylamino}benzonitrile] | 0.005
32 | CCCc1cc(N2CC[C@H](NCc3ccccc3F)C2)nc(Nc2cccc(C#N)c2)n1 [Example 106, (S)-3-{4-[3-(2-fluorobenzylamino)pyrrolidin-1-yl]-6-propylpyrimidin-2-ylamino}benzonitrile] | 0.13
33 | CCCc1cc(N2CC[C@H](NCc3cccc(C(F)(F)F)c3)C2)nc(Nc2cccc(C#N)c2)n1 [Example 107, (S)-3-(4-propyl-6-{3-[3-(trifluoromethyl)benzylamino]pyrrolidin-1-yl}pyrimidin-2-ylamino)benzonitrile] | 0.42
